Experimental data as given in patent US10357036B2, “Compounds for controlling arthropods” (priority 2015, dated 2019).
Like-named read-outs stand apart in the source and are kept apart here.

Tests used:
[1] = tested on: Musca domestica; assay: Musca domestica test; format: in vivo; details: 100 ppm; adult houseflies; after 2 days
Protocol: (§1) • Solvent: dimethyl sulfoxide
To produce a suitable active ingredient formulation, 10 mg of active ingredient are mixed with 0.5 ml of dimethyl sulfoxide, and the concentrate is diluted with water to the desired concentration.
Vessels containing a sponge treated with sugar solution and the active ingredient formulation of the desired concentration are populated with 10 adult houseflies (Musca domestica).

[2] = tested on: Ctenocephalides felis; assay: Ctenocephalides felis oral test; format: in vivo; details: 100 ppm in citrated cattle blood; after 2 days
[3] = tested on: Tetranychus urticae; assay: Tetranychus urticae spray test, OP-resistant (bean leaf discs); format: in vivo; details: 100 g/ha; after 6 days
Protocol: (§2) After 6 days, the efficacy in % is determined.

[4] = tested on: Boophilus microplus; assay: Boophilus microplus injection test; format: in vivo; details: 20 μg/animal; assessed after 7 days
Protocol: as §1
1 μl of the active ingredient solution is injected into the abdomen of 5 engorged adult female cattle ticks (Boophilus microplus). The animals are transferred into dishes and kept in a climate-controlled room.

[5] = tested on: Phaedon cochleariae; assay: Phaedon cochleariae spray test; details: for efficacy: 100 g/ha, after 7 days
[6] = tested on: Meloidogyne incognita; assay: Meloidogyne incognita test; format: in vivo; details: 20 ppm; after 14 days
Protocol: • Solvent: 125.0 parts by weight of acetone
To produce a suitable active compound preparation, 1 part by weight of active compound is mixed with the stated amount of solvent and the concentrate is diluted to the desired concentration with water.
Vessels are filled with sand, active compound solution, an egg/larvae suspension of the southern root-knot nematode (Meloidogyne incognita) and lettuce seeds. The lettuce seeds germinate and the plants develop. The galls develop on the roots.
After 14 days, the nematicidal efficacy in % is determined by the formation of galls. 100% means that no galls were found; 0% means that the number of galls on the treated plants corresponds to the untreated control.

[7] = tested on: cattle ticks (Boophilus microplus) Parkhurst strain, SP-resistant; assay: Boophilus microplus dip test; format: in vivo; details: 100 ppm; assessed after 7 days
Protocol: • Test animals: cattle ticks (Boophilus microplus) Parkhurst strain, SP-resistant • Solvent: dimethyl sulfoxide
10 mg of active ingredient are dissolved in 0.5 ml of dimethyl sulfoxide. To produce a suitable formulation, the active ingredient solution is diluted with water to the concentration desired in each case.
This active ingredient formulation is pipetted into tubes. 8-10 engorged adult female cattle ticks (Boophilus microplus) are transferred into a further tube with holes. The tube is immersed into the active ingredient formulation, and all the ticks are completely wetted. After the liquid has run out, the ticks are transferred on filter discs into plastic dishes and stored in a climate-controlled room.
Efficacy is assessed after 7 days by laying of fertile eggs. Eggs which are not visibly fertile are stored in a climate-controlled cabinet until the larvae hatch after about 42 days. An efficacy of 100% means that none of the ticks has laid any fertile eggs; 0% means that all the eggs are fertile.

[8] = tested on: Rhipicephalus sanguineus; assay: Rhipicephalus sanguineus in vitro contact test with adult brown dog ticks; format: in vivo; details: application rate 5 μg/cm^2 (=500 g/ha); after 48 h; dead or moribund ticks
How it was run: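 Adult Rhipicephalus sanguineus (5-10 per tube) held in glass tubes coated with compound from acetone solution, 900 ppm giving 5 μg/cm^2, in the dark at room temperature. After 48 h ticks put on a 45-50° C hotplate up to 5 min; motionless or uncoordinated ticks scored dead/moribund as % efficacy.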

[9] = tested on: Spodoptera frugiperda; assay: Spodoptera frugiperda spray test; format: in vivo; details: 100 g/ha, after 7 days; for pest or weed control at 100 g/ha: Spodoptera frugiperda, 168 h, read-out: efficacy
[10] = tested on: Ctenocephalides felis; assay: Ctenocephalides felis in vitro contact test with adult cat fleas; format: in vivo; details: application rate 5 μg/cm^2 (=500 g/ha); after 48 h; dead or moribund fleas
How it was run: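 Glass tubes were coated with compound in acetone (900 ppm solution gives 5 μg/cm²), dried, then loaded with 5–10 adult cat fleas. Held horizontal at room temperature and ambient humidity for 48 h. Efficacy is the % of fleas dead or moribund (motionless or uncoordinated after knock-down).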

[11] = tested on: Tetranychus urticae; assay: Tetranychus urticae spray test, OP-resistant (bean plants); format: in vivo; details: 4 ppm; after 7 days
Protocol: To produce further test concentrations, the latter is diluted with emulsifier-containing water. When addition of ammonium salts and/or penetrants is required, these are each added at a concentration of 1000 ppm to the preparation solution.
Bean plants (Phaseolus vulgaris), which are heavily infested by all stages of the greenhouse red spider mite (Tetranychus urticae), are treated by being sprayed with the active compound preparation at the desired concentration.

[12] = tested on: Myzus persicae; assay: Myzus persicae spray test (Chinese cabbage leaf discs); format: in vivo; details: 100 g/ha; after 6 days
Protocol: as §2

[13] = reversed-phase C18 HPLC column, logP, HPLC, C18, acetonitrile/water with formic acid (note a)
[14] = reversed-phase C18 HPLC column, logP^a, HPLC-MS method a)

Q: For `CC(=O)N(C)Cc1cccc(-c2cnn(-c3c(Cl)cc(C(F)(C(F)(F)F)C(F)(F)F)cc3Cl)c2)c1` [Ia-42], which “efficacy (rate of extermination)” value [1] is on record?
A: 80%

Q: And the “efficacy (rate of extermination)” value [2]?
A: 100%

Q: What about the efficacy [3] of the same molecule?
A: 100%

Q: And the “efficacy (laying of fertile eggs)” value [4]?
A: 100%

Q: And the efficacy [5]?
A: 100%

Q: What about the “nematicidal efficacy (formation of galls)” value (from here on “nematicidal efficacy”) [6] of the same molecule?
A: 90%

Q: Which “nematicidal efficacy” value [6] does the source give for `CC(=O)N(C)Cc1cc(-c2cnn(-c3c(Cl)cc(C4(C(F)(F)F)CC4)cc3Cl)c2)ccc1F` [Ia-125] here?
A: 100%

Q: With `CCC(=O)NCc1cc(-c2cnn(-c3c(Cl)cc(C(F)(C(F)(F)F)C(F)(F)F)cc3OC(F)F)c2)ccc1Cl` [Ia-51] as the molecule, how does the “efficacy (rate of extermination)” value [1] read?
A: 100%

Q: And the “efficacy (laying of fertile eggs)” value [7]?
A: 100%

Q: And the “efficacy (rate of extermination)” value [2]?
A: 100%

Q: And the efficacy [8]?
A: 100%

Q: And the “efficacy (laying of fertile eggs)” value [4]?
A: 100%

Q: And the efficacy [5]?
A: 100%

Q: And the efficacy [9]?
A: 100%

Q: What about the efficacy [10] of the same molecule?
A: 100%

Q: And the efficacy [11]?
A: 99%

Q: Which efficacy [3] does the source give for `CC(=O)NCc1cccc(-c2cnn(-c3c(Cl)cc(C(F)(C(F)(F)F)C(F)(F)F)cc3C#N)c2)c1` [Ia-102] here?
A: 90%

Q: And the efficacy [5]?
A: 100%

Q: What about the “nematicidal efficacy” value [6] of the same molecule?
A: 100%

Q: Which results are given for `CCC(=O)NCc1cccc(-c2cnn(-c3c(Cl)cc(C(F)(C(F)(F)F)C(F)(F)F)cc3Cl)c2)c1` [Ia-08]?
A: efficacy (rate of extermination) [1]: 80%; efficacy (rate of extermination) [2]: 100%; efficacy [3]: 90%; efficacy [8]: 80%; efficacy (laying of fertile eggs) [4]: 100%; efficacy [5]: 100%; nematicidal efficacy (formation of galls) [6]: 100%; efficacy [9]: 100%; efficacy [10]: 100%

Q: Which results are given for `CCC(=O)NCc1cc(-c2cnn(-c3c(Cl)cc(C(F)(C(F)(F)F)C(F)(F)F)cc3SC)c2)ccc1F` [Ia-10, N-(5-{1-[2-chloro-4-(1,1,1,2,3,3,3-heptafluoropropan-2-yl)-6-(methylsulfanyl)phenyl]-1H-pyrazol-4-yl}-2-fluorobenzyl)propanamide]?
A: efficacy (rate of extermination) [1]: 100%; efficacy (rate of extermination) [2]: 100%; efficacy [3]: 100%; efficacy [8]: 100%; efficacy (laying of fertile eggs) [4]: 100%; pest or weed control at 100 g/ha ([5]; Phaedon cochleariae, 168 h, read-out: efficacy): 100%; pest or weed control at 100 g/ha [9]: 100%; efficacy [10]: 100%; chromatographic logP [13]: 4.29; chromatographic logP [14]: 4.29

Q: With `CC(=O)NCc1cc(-c2cnn(-c3c(Cl)cc(C(F)(C(F)(F)F)C(F)(F)F)cc3C(F)(F)F)c2)ccc1Cl` [Ia-55] as the molecule, how does the “efficacy (rate of extermination)” value [1] read?
A: 100%

Q: And the “efficacy (rate of extermination)” value [2]?
A: 100%

Q: What about the efficacy [8] of the same molecule?
A: 100%

Q: What about the “efficacy (laying of fertile eggs)” value [4] of the same molecule?
A: 100%

Q: What about the efficacy [5] of the same molecule?
A: 100%

Q: And the efficacy [9]?
A: 100%

Q: What about the efficacy [10] of the same molecule?
A: 70%

Q: What about the efficacy [11] of the same molecule?
A: 99%

Q: Which efficacy [12] does the source give for `CC(=O)NCc1cc(-c2cnn(-c3c(Cl)cc(C(F)(C(F)(F)F)C(F)(F)F)cc3C#N)c2)ccc1F` [Ia-105] here?
A: 90%

Q: And the efficacy [3]?
A: 100%

Q: What about the efficacy [5] of the same molecule?
A: 100%

Q: What about the “nematicidal efficacy” value [6] of the same molecule?
A: 90%

Q: What about the efficacy [9] of the same molecule?
A: 100%

Q: For `CC(=O)NCc1cc(-c2cnn(-c3c(Cl)cc(C(F)(C(F)(F)F)C(F)(F)F)cc3OC(F)(F)F)c2)ccc1Cl` [Ia-57], which “efficacy (rate of extermination)” value [1] is on record?
A: 100%

Q: What about the “efficacy (rate of extermination)” value [2] of the same molecule?
A: 100%

Q: What about the efficacy [8] of the same molecule?
A: 80%

Q: What about the “efficacy (laying of fertile eggs)” value [4] of the same molecule?
A: 100%

Q: What about the efficacy [5] of the same molecule?
A: 100%

Q: What about the efficacy [9] of the same molecule?
A: 100%

Q: And the efficacy [11]?
A: 99%

Q: Which results are given for `CC(=O)NCc1cc(-c2cnn(-c3c(Cl)cc(C(F)(C(F)(F)F)C(F)(F)F)cc3Cl)c2)ccc1F` [Ia-15]?
A: efficacy (rate of extermination) [1]: 100%; efficacy (laying of fertile eggs) [7]: 90%; efficacy [12]: 90%; efficacy (rate of extermination) [2]: 100%; efficacy [3]: 100%; efficacy [8]: 100%; efficacy (laying of fertile eggs) [4]: 100%; efficacy [5]: 100%; nematicidal efficacy (formation of galls) [6]: 90%; efficacy [9]: 100%; efficacy [10]: 100%

Q: Which results are given for `CC(=O)NCc1cc(-c2cnn(-c3c(Cl)cc(C(F)(C(F)(F)F)C(F)(F)F)cc3OC(F)F)c2)ccc1Cl` [Ia-53]?
A: efficacy (rate of extermination) [1]: 100%; efficacy (laying of fertile eggs) [7]: 100%; efficacy (rate of extermination) [2]: 100%; efficacy [8]: 100%; efficacy (laying of fertile eggs) [4]: 100%; efficacy [5]: 100%; efficacy [9]: 100%; efficacy [10]: 90%; efficacy [11]: 99%

Q: For `O=C(NCc1cc(-c2cnn(-c3c(Cl)cc(C(F)(C(F)(F)F)C(F)(F)F)cc3Cl)c2)ccc1Cl)C1CC1` [Ia-25, N-(2-chloro-5-{1-[2,6-dichloro-4-(1,1,1,2,3,3,3-heptafluoropropan-2-yl)phenyl]-1H-pyrazol-4-yl}benzyl)cyclopropanecarboxamide], which “efficacy (rate of extermination)” value [1] is on record?
A: 100%

Q: And the “efficacy (rate of extermination)” value [2]?
A: 100%

Q: What about the efficacy [8] of the same molecule?
A: 80%

Q: And the “efficacy (laying of fertile eggs)” value [4]?
A: 100%

Q: What about the pest or weed control at 100 g/ha [9] of the same molecule?
A: 100%

Q: And the efficacy [10]?
A: 100%

Q: And the chromatographic logP [13]?
A: 4.8

Q: And the chromatographic logP [14]?
A: 4.8

Q: Which “efficacy (rate of extermination)” value [1] does the source give for `CCC(=O)NCc1c(F)ccc(-c2cnn(-c3c(Cl)cc(C(F)(C(F)(F)F)C(F)(F)F)cc3C(F)F)c2)c1F` [Ia-141] here?
A: 100%

Q: What about the “efficacy (rate of extermination)” value [2] of the same molecule?
A: 100%

Q: What about the efficacy [3] of the same molecule?
A: 100%

Q: And the efficacy [8]?
A: 100%

Q: What about the “efficacy (laying of fertile eggs)” value [4] of the same molecule?
A: 100%

Q: What about the efficacy [5] of the same molecule?
A: 100%

Q: What about the “nematicidal efficacy” value [6] of the same molecule?
A: 90%

Q: What about the efficacy [9] of the same molecule?
A: 100%

Q: Which “efficacy (laying of fertile eggs)” value [7] does the source give for `O=C(NCc1cc(-c2cn(-c3c(Cl)cc(C(F)(C(F)(F)F)C(F)(F)F)cc3Cl)cn2)ccc1F)C1CC1` [I-T2-04] here?
A: 100%

Q: And the “efficacy (rate of extermination)” value [2]?
A: 100%

Q: And the “efficacy (laying of fertile eggs)” value [4]?
A: 100%

Q: And the efficacy [5]?
A: 100%

Q: And the efficacy [9]?
A: 83%

Q: What about the efficacy [10] of the same molecule?
A: 100%

Q: And the efficacy [11]?
A: 100%

Q: Which results are given for `CC(=O)NCc1cc(-c2cnn(-c3c(Cl)cc(C(F)(C(F)(F)F)C(F)(F)F)cc3C(F)F)c2)ccc1F` [Ia-34]?
A: efficacy [12]: 90%; efficacy [3]: 100%; efficacy [5]: 100%; nematicidal efficacy (formation of galls) [6]: 100%; efficacy [9]: 100%
